Results published in patent US12691111B2, “SETD2 inhibitors and related methods and uses, including combination therapies” (EPIZYME, INC., priority 2020, dated 2026).

How the values were obtained:
JVM2 = experiment: 7-day co-treatment combination study, CellTiter-Glo, Loewe Volume; format: cell-based; conditions: JVM2 mantle cell lymphoma cells, 7-day co-treatment with Cpd. No. 15
Description: (§1) Multiple myeloma (MM) and mantle cell lymphoma (MCL) Cell line cultures in log-linear growth rate were treated with combinations of Cpd. No. 15 and combination partners according to a co-treatment model. […] No. 15 and the combination partner. […] Each combination was tested in quadruplicate wells. The final concentration of DMSO (vehicle) in the assay was 0.1% v/v. Fifty microliters of cell line suspension were directly dispensed to the assay-ready plates with an automated multichannel dispenser on to 384-well assay-ready plates. Assay plates were incubated for seven days in a humidified atmosphere of 5% CO2 at 37° C. Quantification of the effect of single agents or combinations on cell viability was performed through measurement of cellular adenosine triphosphate (ATP) using a CellTiter-Glo® (Promega, MadisonWIs.) Luminescent Cell Viability Assay. Luminescence was detected using a SpectraMax M5 microplate reader (Molecular Devices, Sunnyvale, CA). Concentration response plots were generated in GraphPad Prism version 7.0 for Windows, GraphPad Software, (La Jolla, CA) and curves fitted to a four-parameter logistic model with variable slope. Percent of inhibition was calculated at each treatment concentration.
(§2) The results of these combinations are summarized in Tables A and B (multiple myeloma cell lines), and Tables C and D (mantle cell lymphoma cell lines).

MAVER1 = experiment: as above; format: cell-based; conditions: MAVER1 mantle cell lymphoma cells, 7-day co-treatment with Cpd. No. 15
Description: as §1, §2

Z138 = experiment: as above; format: cell-based; conditions: Z138 mantle cell lymphoma cells, 7-day co-treatment with Cpd. No. 15
Description: as §1, §2

REC1 = experiment: as above; format: cell-based; conditions: REC1 mantle cell lymphoma cells, 7-day co-treatment with Cpd. No. 15
Description: as §1, §2

MINO = experiment: as above; format: cell-based; conditions: MINO mantle cell lymphoma cells, 7-day co-treatment with Cpd. No. 15
Description: as §1, §2

JEKO1 = experiment: as above; format: cell-based; conditions: JEKO1 mantle cell lymphoma cells, 7-day co-treatment with Cpd. No. 15
Description: as §1, §2

GRANTA519 = experiment: as above; format: cell-based; conditions: GRANTA519 mantle cell lymphoma cells, 7-day co-treatment with Cpd. No. 15
Description: as §1, §2

KARPAS422 = experiment: Pre-treatment model combination study (4 days pre-treatment, 3 days co-treatment), CellTiter-Glo, Loewe Volume; format: cell-based; conditions: KARPAS422 diffuse large B-cell lymphoma cells, 4 days Cpd. No. 15 pre-treatment then 3 days co-treatment
Description: (§3) Diffuse large B-cell lymphoma cells were seeded into flasks and pre-treated with several concentrations of Cpd. No. 15 or DMSO. Cells were then split adjusted to initial density, replated and co-treated Cpd. No. 15 and a second agent of interest using the HP D300 digital dispenser (Tecan Group, Mannedorf, Switzerland) in tissue culture treated solid white 384-well plates for additional 3 days. […] After 3 days cotreatment, cell viability was measured via ATP content using CellTiter-Glo® (Promega, Madison, WI) and luminescence was detected using a SpectraMax M5 microplate reader (Molecular Devices, Sunnyvale, CA).
(§4) Diffuse large B-cell lymphoma (DLBCL) cell line cultures in log-linear growth rate were treated with combinations of Cpd. No. 15 and combination partners according to a pre-treatment model. Cells were seeded first into 8 flasks and pre-treated with 7 different concentrations of Cpd. […] Cells were harvested from each flask and re-seeded onto the corresponding 384-well plate with the same concentration of Cpd. No. 15. and 9 concentrations of its combination partner in triplicate wells. The final concentration of DMSO (vehicle) in the assay was 0.1% v/v. Fifty microliters of cell line(s) suspension were directly dispensed to the assay-ready plates with an automated multichannel dispenser on to 384-well assay-ready plates. Assay plates were incubated for three days in a humidified atmosphere of 5% CO2 at 37° C. Quantification of the effect of single agents or combinations on cell viability was performed through measurement of cellular adenosine triphosphate (ATP) using CellTiter-Glo® (Promega, Madison, WI). Luminescence was detected using a SpectraMax M5 microplate reader (Molecular Devices, Sunnyvale, CA). Concentration response plots were generated in GraphPad Prism version 8.0 for Windows, GraphPad Software, (La Jolla, CA) and curves fitted to a four-parameter logistic model with variable slope. Percent of inhibition was calculated at each treatment concentration.

SUDHL-6 = experiment: as above; format: cell-based; conditions: SUDHL-6 diffuse large B-cell lymphoma cells, 4 days Cpd. No. 15 pre-treatment then 3 days co-treatment
Description: as §3, §4

WSUDLCL2 = experiment: as above; format: cell-based; conditions: WSUDLCL2 diffuse large B-cell lymphoma cells, 4 days Cpd. No. 15 pre-treatment then 3 days co-treatment
Description: as §3, §4

SUDHL-2 = experiment: as above; format: cell-based; conditions: SUDHL-2 diffuse large B-cell lymphoma cells, 4 days Cpd. No. 15 pre-treatment then 3 days co-treatment
Description: as §3, §4

KMS-11 = experiment: 7-day co-treatment combination study, CellTiter-Glo, Loewe Volume; conditions: KMS-11 multiple myeloma cells, 7-day co-treatment with Cpd. No. 15
KMS34 = experiment: as above; format: cell-based; conditions: KMS34 multiple myeloma cells, 7-day co-treatment with Cpd. No. 15
Description: as §1, §2

MM1.S = experiment: as above; format: cell-based; conditions: MM1.S multiple myeloma cells, 7-day co-treatment with Cpd. No. 15
Description: as §1, §2

RPMI-8226 = experiment: as above; format: cell-based; conditions: RPMI-8226 multiple myeloma cells, 7-day co-treatment with Cpd. No. 15
Description: as §1, §2

L363 = experiment: as above; format: cell-based; conditions: L363 multiple myeloma cells, 7-day co-treatment with Cpd. No. 15
Description: as §1, §2

KMS-28-BM = experiment: as above; format: cell-based; conditions: KMS-28-BM multiple myeloma cells, 7-day co-treatment with Cpd. No. 15
Description: as §1, §2

NCI-H929 = experiment: as above; format: cell-based; conditions: NCI-H929 multiple myeloma cells, 7-day co-treatment with Cpd. No. 15
Description: as §1, §2

Structure (SMILES)	Combination effect (Loewe Volume class) of Cpd. No. 15 with combination partner (JVM2)	Combination effect (Loewe Volume class) of Cpd. No. 15 with combination partner (MAVER1)	Combination effect (Loewe Volume class) of Cpd. No. 15 with combination partner (Z138)	Combination effect (Loewe Volume class) of Cpd. No. 15 with combination partner (REC1)	Combination effect (Loewe Volume class) of Cpd. No. 15 with combination partner (MINO)	Combination effect (Loewe Volume class) of Cpd. No. 15 with combination partner (JEKO1)	Combination effect (Loewe Volume class) of Cpd. No. 15 with combination partner (GRANTA519)	Combination effect (Loewe Volume class) of Cpd. No. 15 with combination partner (KARPAS422)	Combination effect (Loewe Volume class) of Cpd. No. 15 with combination partner (SUDHL-6)	Combination effect (Loewe Volume class) of Cpd. No. 15 with combination partner (WSUDLCL2)	Combination effect (Loewe Volume class) of Cpd. No. 15 with combination partner (SUDHL-2)	Combination effect (Loewe Volume class) of Cpd. No. 15 with combination partner (KMS-11)	Combination effect (Loewe Volume class) of Cpd. No. 15 with combination partner (KMS34)	Combination effect (Loewe Volume class) of Cpd. No. 15 with combination partner (MM1.S)	Combination effect (Loewe Volume class) of Cpd. No. 15 with combination partner (RPMI-8226)	Combination effect (Loewe Volume class) of Cpd. No. 15 with combination partner (L363)	Combination effect (Loewe Volume class) of Cpd. No. 15 with combination partner (KMS-28-BM)	Combination effect (Loewe Volume class) of Cpd. No. 15 with combination partner (NCI-H929)
C[C@]12C=CC(=O)C=C1CC[C@@H]1[C@@H]2[C@@H](O)C[C@@]2(C)[C@H]1CC[C@]2(O)C(=O)CO [Prednisolone, prednisolone]	Additivity (between 1 and −1: additivity)	Synergy (VLoewe>1: synergy)	Additivity (between 1 and −1: additivity)	Synergy (VLoewe>1: synergy)	Additivity (between 1 and −1: additivity)	Additivity (between 1 and −1: additivity)	Synergy (VLoewe>1: synergy)	Additivity (between 1 and −1: additivity)	Synergy (VLoewe>1: synergy)	Antagonism (<−1: antagonistic)	Synergy (VLoewe>1: synergy)	–	–	–	–	–	–	–
Nc1cccc2c1CN(C1CCC(=O)NC1=O)C2=O (centres unmarked) [Lenalidomide, lenalidomide]	Additivity (between 1 and −1: additivity)	Synergy (VLoewe>1: synergy)	Synergy (VLoewe>1: synergy)	Additivity (between 1 and −1: additivity)	Additivity (between 1 and −1: additivity)	Synergy (VLoewe>1: synergy)	Additivity (between 1 and −1: additivity)	No effect	No effect	Additivity (between 1 and −1: additivity)	Additivity (between 1 and −1: additivity)	Synergy (VLoewe>1: synergy)	Synergy (VLoewe>1: synergy)	Additivity (between 1 and −1: additivity)	Synergy (VLoewe>1: synergy)	Additivity (between 1 and −1: additivity)	No Effect	–
CCN(c1cc(-c2ccc(CN3CCOCC3)cc2)cc(C(=O)NCc2c(C)cc(C)[nH]c2=O)c1C)C1CCOCC1 [Tazemetostat, tazemetostat]	Additivity (between 1 and −1: additivity)	Additivity (between 1 and −1: additivity)	No Effect	Additivity (between 1 and −1: additivity)	No Effect	No Effect	No Effect	No effect	No effect	Additivity (between 1 and −1: additivity)	Additivity (between 1 and −1: additivity)	–	Synergy (VLoewe>1: synergy)	Synergy (VLoewe>1: synergy)	Additivity (between 1 and −1: additivity)	Synergy (VLoewe>1: synergy)	–	–
Nc1cccc2c1C(=O)N(C1CCC(=O)NC1=O)C2=O (centres unmarked) [Pomalidomide, pomalidomide]	–	–	–	–	–	–	–	–	–	–	–	Synergy (VLoewe>1: synergy)	Synergy (VLoewe>1: synergy)	Additivity (between 1 and −1: additivity)	Synergy (VLoewe>1: synergy)	Additivity (between 1 and −1: additivity)	Additivity (between 1 and −1: additivity)	Synergy (VLoewe>1: synergy)
